#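 In this assay, cells in 96-well plates receive the compound at five concentrations for 48 hours. Endpoints are linearly interpolated between the surrounding concentrations. The concentration for 50% growth inhibition is given as GI50.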 Active and inactive are the calls of the source. Rule as the data show it: active = GI50 up to about 1.1 µM and inactive = higher.
# What was measured:
# Experiment in all cases: growth of human tumour cells (NCI), 48 h
# LOX IMVI = test system: LOX IMVI
# NCI-H23 = test system: NCI-H23
# SK-MEL-28 = test system: SK-MEL-28
# CCRF-CEM = test system: CCRF-CEM
# TK-10 = test system: TK-10
# DLD-1 = test system: DLD-1
# HOP-62 = test system: HOP-62
# RXF 393 = test system: RXF 393
# A549 = test system: A549
# IGROV-1 = test system: IGROV-1
# SK-MEL-5 = test system: SK-MEL-5
# UO-31 = test system: UO-31
# UACC-62 = test system: UACC-62
# HCT-15 = test system: HCT-15
# XF498 = test system: XF498
# A498 = test system: A498
# SK-OV-3 = test system: SK-OV-3
# Malme-3M = test system: Malme-3M
# OVCAR-4 = test system: OVCAR-4
# NCI-H522 = test system: NCI-H522
# KM12 = test system: KM12
# DMS-273 = test system: DMS-273
# SNB-75 = test system: SNB-75
# SNB-78 = test system: SNB-78
# 786-0 = test system: 786-0
# HCT-116 = test system: HCT-116
# DMS-114 = test system: DMS-114
# SF-539 = test system: SF-539
# SK-MEL-2 = test system: SK-MEL-2
# K562 = test system: K562
# M19-MEL = test system: M19-MEL
# SNB-19 = test system: SNB-19
# SF-268 = test system: SF-268
# HCC 2998 = test system: HCC 2998
# NCI-H460 = test system: NCI-H460
# ACHN = test system: ACHN
# U-251 = test system: U-251
# OVCAR-5 = test system: OVCAR-5
# SW-620 = test system: SW-620
# OVCAR-8 = test system: OVCAR-8
# EKVX = test system: EKVX
# COLO 205 = test system: COLO 205
# CAKI-1 = test system: CAKI-1
# RPMI-8226 = test system: RPMI-8226
# LXFL 529 = test system: LXFL 529
# UACC-257 = test system: UACC-257
# HOP-92 = test system: HOP-92
# KM-20L2 = test system: KM-20L2
# MOLT-4 = test system: MOLT-4
# HT-29 = test system: HT-29
# SN12C = test system: SN12C
# M14 = test system: M14
# OVCAR-3 = test system: OVCAR-3
# SF-295 = test system: SF-295
# SR = test system: SR
# HL-60 = test system: HL-60
# NCI-H226 = test system: NCI-H226
smiles,measurement,setting,value
Clc1ccc(-c2nnc3c4nnc(-c5ccc(Cl)cc5Cl)n4c4ccccc4n23)c(Cl)c1,GI50,LOX IMVI,> 100 µM (inactive)
same,GI50,NCI-H23,> 100 µM (inactive)
same,GI50,SK-MEL-28,> 100 µM (inactive)
same,GI50,CCRF-CEM,> 100 µM (inactive)
same,GI50,TK-10,> 100 µM (inactive)
same,GI50,DLD-1,> 100 µM (inactive)
same,GI50,HOP-62,> 100 µM (inactive)
same,GI50,RXF 393,> 100 µM (inactive)
same,GI50,A549,> 100 µM (inactive)
same,GI50,IGROV-1,> 100 µM (inactive)
same,GI50,SK-MEL-5,> 100 µM (inactive)
same,GI50,UO-31,> 100 µM (inactive)
same,GI50,UACC-62,> 100 µM (inactive)
same,GI50,HCT-15,> 100 µM
same,GI50,XF498,> 100 µM (inactive)
same,GI50,A498,> 100 µM (inactive)
same,GI50,SK-OV-3,> 100 µM (inactive)
same,GI50,Malme-3M,> 100 µM (inactive)
same,GI50,OVCAR-4,> 100 µM (inactive)
same,GI50,NCI-H522,> 100 µM (inactive)
same,GI50,KM12,> 100 µM (inactive)
same,GI50,DMS-273,> 100 µM (inactive)
same,GI50,SNB-75,26.5 µM (inactive)
same,GI50,SNB-78,34.4 µM (inactive)
same,GI50,786-0,82.4 µM (inactive)
same,GI50,HCT-116,> 100 µM (inactive)
same,GI50,DMS-114,> 100 µM (inactive)
same,GI50,SF-539,> 100 µM (inactive)
same,GI50,SK-MEL-2,> 100 µM (inactive)
same,GI50,K562,> 100 µM (inactive)
same,GI50,M19-MEL,> 100 µM (inactive)
same,GI50,SNB-19,63.5 µM (inactive)
same,GI50,SF-268,> 100 µM (inactive)
same,GI50,HCC 2998,> 100 µM (inactive)
same,GI50,NCI-H460,> 100 µM (inactive)
same,GI50,ACHN,> 100 µM (inactive)
same,GI50,U-251,> 100 µM (inactive)
same,GI50,OVCAR-5,> 100 µM (inactive)
same,GI50,SW-620,> 100 µM (inactive)
same,GI50,OVCAR-8,> 100 µM (inactive)
same,GI50,EKVX,> 100 µM (inactive)
same,GI50,COLO 205,> 100 µM (inactive)
same,GI50,CAKI-1,> 100 µM (inactive)
same,GI50,RPMI-8226,> 100 µM (inactive)
same,GI50,LXFL 529,> 100 µM (inactive)
same,GI50,UACC-257,> 100 µM (inactive)
same,GI50,HOP-92,92.3 µM (inactive)
same,GI50,KM-20L2,> 100 µM (inactive)
same,GI50,MOLT-4,> 100 µM (inactive)
same,GI50,HT-29,> 100 µM (inactive)
same,GI50,SN12C,> 100 µM (inactive)
same,GI50,M14,> 100 µM (inactive)
same,GI50,OVCAR-3,> 100 µM (inactive)
same,GI50,SF-295,> 100 µM (inactive)
CC(C)(C)C1=CC(=N/N=c2\scc(-c3ccccc3)n2Cc2ccccc2)C=C(C(C)(C)C)C1=O,GI50,LOX IMVI,> 100 µM (inactive)
same,GI50,NCI-H23,> 100 µM (inactive)
same,GI50,SK-MEL-28,> 100 µM (inactive)
same,GI50,CCRF-CEM,> 100 µM (inactive)
same,GI50,HOP-62,> 100 µM (inactive)
same,GI50,RXF 393,> 100 µM (inactive)
same,GI50,A549,> 100 µM (inactive)
same,GI50,SK-MEL-5,> 100 µM (inactive)
same,GI50,UO-31,> 100 µM (inactive)
same,GI50,UACC-62,> 100 µM (inactive)
same,GI50,HCT-15,> 100 µM
same,GI50,XF498,> 100 µM (inactive)
same,GI50,A498,> 100 µM (inactive)
same,GI50,Malme-3M,> 100 µM (inactive)
same,GI50,OVCAR-4,> 100 µM (inactive)
same,GI50,DMS-273,> 100 µM (inactive)
same,GI50,SNB-75,> 100 µM (inactive)
same,GI50,786-0,> 100 µM (inactive)
same,GI50,SR,> 100 µM (inactive)
same,GI50,HCT-116,> 100 µM (inactive)
same,GI50,DMS-114,> 100 µM (inactive)
same,GI50,SF-539,> 100 µM (inactive)
same,GI50,SK-MEL-2,> 100 µM (inactive)
same,GI50,K562,> 100 µM (inactive)
same,GI50,M19-MEL,> 100 µM (inactive)
same,GI50,SNB-19,> 100 µM (inactive)
same,GI50,SF-268,> 100 µM (inactive)
same,GI50,HCC 2998,> 100 µM (inactive)
same,GI50,NCI-H460,> 100 µM (inactive)
same,GI50,ACHN,> 100 µM (inactive)
same,GI50,U-251,> 100 µM (inactive)
same,GI50,HL-60,> 100 µM (inactive)
same,GI50,NCI-H226,> 100 µM (inactive)
same,GI50,OVCAR-5,> 100 µM (inactive)
same,GI50,SW-620,> 100 µM (inactive)
same,GI50,OVCAR-8,> 100 µM (inactive)
same,GI50,EKVX,> 100 µM (inactive)
same,GI50,COLO 205,> 100 µM (inactive)
same,GI50,CAKI-1,> 100 µM (inactive)
same,GI50,LXFL 529,> 100 µM (inactive)
same,GI50,UACC-257,> 100 µM (inactive)
same,GI50,KM-20L2,> 100 µM (inactive)
same,GI50,MOLT-4,> 100 µM (inactive)
same,GI50,HT-29,> 100 µM (inactive)
same,GI50,SN12C,> 100 µM (inactive)
same,GI50,M14,> 100 µM (inactive)
same,GI50,OVCAR-3,> 100 µM (inactive)
same,GI50,SF-295,> 100 µM (inactive)

# From ChEMBL document CHEMBL1201862, “PubChem BioAssay data set” (2004)
